Measurements taken from patent US10100011B2, “Pentadienoyl piperidine derivative and use thereof” (Industry-Academic Cooperation Foundation, Yonsei University, priority 2014, dated 2018).

How the values were obtained:
[1] = target: T1, human recombinant SIRT1 enzyme (Homo sapiens, UniProt Q96EB6); experiment: SIRT1 activity measurement (SIRT1 Fluorometric Drug Discovery Kit); type: biochemical
T1 construct: purchased ENZO Life Sciences Inc., NY, USA BML-AK555
T1 sequence (Q96EB6 1-747): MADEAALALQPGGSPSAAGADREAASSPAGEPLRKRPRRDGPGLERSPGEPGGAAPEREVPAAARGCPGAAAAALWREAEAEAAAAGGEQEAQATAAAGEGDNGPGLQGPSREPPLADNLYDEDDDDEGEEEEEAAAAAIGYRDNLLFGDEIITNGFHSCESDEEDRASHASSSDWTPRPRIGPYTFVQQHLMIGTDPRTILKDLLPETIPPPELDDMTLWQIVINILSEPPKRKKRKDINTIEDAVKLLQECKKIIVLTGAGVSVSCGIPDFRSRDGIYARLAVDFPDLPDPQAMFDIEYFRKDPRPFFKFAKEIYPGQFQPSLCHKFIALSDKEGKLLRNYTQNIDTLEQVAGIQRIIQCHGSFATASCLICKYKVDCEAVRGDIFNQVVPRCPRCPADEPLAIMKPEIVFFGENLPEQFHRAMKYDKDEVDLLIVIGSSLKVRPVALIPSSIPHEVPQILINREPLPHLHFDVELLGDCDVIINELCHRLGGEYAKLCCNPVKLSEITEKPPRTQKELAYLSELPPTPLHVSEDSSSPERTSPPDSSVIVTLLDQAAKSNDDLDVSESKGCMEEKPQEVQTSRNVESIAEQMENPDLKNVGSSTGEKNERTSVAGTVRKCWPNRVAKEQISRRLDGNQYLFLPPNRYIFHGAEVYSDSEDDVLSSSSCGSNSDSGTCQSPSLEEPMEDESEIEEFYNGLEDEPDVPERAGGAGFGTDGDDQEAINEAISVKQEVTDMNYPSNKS
Description: To analyze SIRT1 activity in a test tube, a deacetylation degree of acetylated lysine included in a substrate was measured using an SIRT1 Fluorometric Drug Discovery Kit (BML-AK555, ENZO Life Sciences Inc., NY, USA). 0.067 U/μl of a human recombinant SIRT1 enzyme and a test substance were mixed in a 96-well plate and reacted at 37° C. for 10 minutes. Subsequently, 167 μM substrate [379th to 382nd amino acid peptide of human p53, Arg-His-Lys-Lys(Ac)] and 1667 μM NAD^+ were added thereto, followed by reacting at 37° C. for 30 minutes. To stop the reaction of SIRT1, 50 μL of a developer including 2 mM nicotinamide was added, followed by reacting at 37° C. for 30 minutes. Chromophoric fluorescence intensity was measured at 360 nm excitation and 460 nm emission.

C57BL/6J mice [2] = experiment: Body weight and visceral fat weight in mice fed high-fat diet; type: in vivo, mouse; conditions: about 0.05% compound in high-fat diet, 10 weeks
Description: (§1) An obesity induction diet used in this experiment was a high-fat diet (HFD: 40% fat calories, 17 g of lard+3% corn oil/100 g diet), and the compositions of diets including the LJ-2501, LJ-2488, LJ-2495, LJ-2496 compounds were identical to that of HFD, except that each of the compounds was included in an amount of about 0.05% (Table 2). As a control drug, an anti-obesity drug, sibutramine (Sibut), was added in an amount of about 0.01% to the high-fat diet and a normal diet group (Chow) was fed with commercial rodent chow.
(§2) 5-week old 40 male C57BL/6J mice (Orient Bio., Korea) were fed with hard feed and accommodated in a laboratory environment for one week. Subsequently, in accordance with a randomized block method, the mice were randomly grouped into a normal diet group, a high-fat diet control group, two experimental substance groups, and […] and raised for a total of 10 weeks (n=8/group). Diets were supplied with water between 10 am and 11 am every day. An intake amount was measured every day and the body weights of the mice were measured every week. To prevent temporal weight change due to feed intake, feedboxes were removed and, after two hours, the body weights were measured. The experimental animals were fasted for 12 hours or more and then anesthetized with diethyl ether, followed by collecting blood, liver, and visceral adipose tissues (epididymal fat, perirenal fat, mesenteric fat, and retroperitoneal fat). The collected samples were washed with 0.1 M phosphate buffered saline (pH 7.4) and then weighed. Blood samples collected from abdominal aortas were centrifuged at 1000×g for 15 minutes, thereby separating plasma.

C57BL/6J mice [3] = experiment: Liver weight, liver tissue lipid concentrations and hepatic function indicators in blood of mice fed high-fat diet; type: in vivo, mouse; conditions: about 0.05% compound in high-fat diet, 10 weeks
Description: as §1, §2
Lipid components were extracted from liver tissue in accordance with the method by Folch, et al. (Folch J, Lees M, Sloane Stanley G H. A simple method for the isolation and purification of total lipids from animal tissues. J Biol Chem. 1957; 226:497-509). In particular, 1 mL of distilled water was added to 0.25 g of a liver tissue sample and then homogenized by means of a Polytron homogenizer (IKA-WERKE GmbH & Co., Ultra-Turrax, Staufen, Germany). To the homogenized solution, 5 mL of a solution including chloroform and methanol (mixed in a ratio of 2:1, v/v) was added, followed by uniformly mixing. Subsequently, centrifugation was carried out at 1000×g for 10 minutes and a lower solution was separated. To a formed supernatant, 2 mL of a mixture including chloroform and methanol (mixed in a ratio of 2:1, v/v) was added, followed by repeating the same procedure. As a result, lipid components were completely isolated from the liver samples. To an obtained lower solution, 3 mL of a mixture including chloroform, methanol, and 0.05% CaCl2 (mixed in a ratio of 3:48:47, v/v/v) was added, followed by mixing for one minute. Subsequently, centrifugation was carried out at 1000×g for 10 minutes. A final lower solution was collected and completely dried with a nitrogen gas. Subsequently, the dried lipid was dissolved in 1 mL of methanol and used for lipid component analysis. The concentrations of neutral fat and cholesterol in the lipid extracts extracted from the liver tissue were measured using the same commercial lipid analysis kit (Bio Clinical System) as that used in the plasma analysis.
Glutamate oxaloacetate transferase (GOT) and glutamate pyruvate transferase (GPT) activity in serum during fasting were measured by means of an automatic biochemical analyzer (Express Plus, Chiron Diagnostics Co., USA). A kit for analysis was purchased from Bayer (Tarrytown, N.Y., USA).

Vmax value of SIRT1 ([1]; in presence of 600 μM compound): without change
concentration at which SIRT1 activity was highest ([1]; increasing concentration of compound, human recombinant SIRT1): 600 µM
SMILES: CSc1ccc(/C=C/C=C/C(=O)N2CCCCC2)cc1 [LJ-2501, (2E,4E)-5-(4-(methylthio)phenyl)-1-(piperine-1-yl)penta-2,4-diene-1-one]
cumulative weight gain, reduction compared to high-fat diet control group (HFD) (C57BL/6J mice [2]): 60%
diet intake amount compared to HFD control group (C57BL/6J mice [2]): not greatly different
epididymal fat, perirenal fat, mesenteric fat and retroperitoneal fat weights compared to HFD (in words) (C57BL/6J mice [2]): significant reduction
total weight of visceral fats (four fat types), reduction compared to HFD (C57BL/6J mice [2]): 72%
visceral fat amount in abdominal section image compared to HFD (naked eye) (C57BL/6J mice [2]): remarkably reduced
hepatic function indexes (ALT, AST) in the blood, reduction compared to HFD (C57BL/6J mice [3]): 60-65%
liver tissue cholesterol concentration, reduction compared to HFD (C57BL/6J mice [3]): 53%
liver tissue free fatty acid concentration, reduction compared to HFD (C57BL/6J mice [3]): 77%
liver tissue neutral fat concentration, reduction compared to HFD (C57BL/6J mice [3]): 35%
liver weight, reduction compared to high-fat diet control group (C57BL/6J mice [3]): 41%
size of the liver compared to HFD group (photograph) (C57BL/6J mice [3]): relatively small
